Here are results for two molecules from patent US20090012095A1, “HUMAN N-TYPE CALCIUM CHANNEL BLOCKERS” (Wyeth, priority 2002, published 2009).

Experiment [1] deals with T1, N-type calcium channel α1B+SFVG (Homo sapiens, UniProt Q00975, INS1237SFVG).
T1 construct: expressed in transfected cells; host or cells: Xenopus oocytes
The experiment is described as follows: Transient expression and recording from Xenopus oocytes, calcium channel modulation. It is filed as cell-based. The settings on record: transient expression. Here is the method: Representative compounds of the formulae herein are screened for activity against […] in an assay essentially as described in J. Neurosci., Aug. 15, 2001, 21(16):5944-5951, W. Xu and D. Lipscombe, using transient expression and recording from Xenopus oocytes. The assay is performed using various calcium channels (e.g., N-type calcium channel α1B+SFVG) whereby the modulation of the calcium channel is measured for each compound.
The following IC50 data were obtained for compounds 1 and 2, following the above-referenced protocols (see Table 1).

For experiment [2], the target named is N-type calcium channel α1B+SFVG (Homo sapiens, UniProt Q00975). The experiment is described as follows: Calcium channel modulation in HEK298 cells. It is filed as cell-based.
Sequence of N-type calcium channel α1B+SFVG (Homo sapiens, UniProt Q00975) (Q00975 whole entry): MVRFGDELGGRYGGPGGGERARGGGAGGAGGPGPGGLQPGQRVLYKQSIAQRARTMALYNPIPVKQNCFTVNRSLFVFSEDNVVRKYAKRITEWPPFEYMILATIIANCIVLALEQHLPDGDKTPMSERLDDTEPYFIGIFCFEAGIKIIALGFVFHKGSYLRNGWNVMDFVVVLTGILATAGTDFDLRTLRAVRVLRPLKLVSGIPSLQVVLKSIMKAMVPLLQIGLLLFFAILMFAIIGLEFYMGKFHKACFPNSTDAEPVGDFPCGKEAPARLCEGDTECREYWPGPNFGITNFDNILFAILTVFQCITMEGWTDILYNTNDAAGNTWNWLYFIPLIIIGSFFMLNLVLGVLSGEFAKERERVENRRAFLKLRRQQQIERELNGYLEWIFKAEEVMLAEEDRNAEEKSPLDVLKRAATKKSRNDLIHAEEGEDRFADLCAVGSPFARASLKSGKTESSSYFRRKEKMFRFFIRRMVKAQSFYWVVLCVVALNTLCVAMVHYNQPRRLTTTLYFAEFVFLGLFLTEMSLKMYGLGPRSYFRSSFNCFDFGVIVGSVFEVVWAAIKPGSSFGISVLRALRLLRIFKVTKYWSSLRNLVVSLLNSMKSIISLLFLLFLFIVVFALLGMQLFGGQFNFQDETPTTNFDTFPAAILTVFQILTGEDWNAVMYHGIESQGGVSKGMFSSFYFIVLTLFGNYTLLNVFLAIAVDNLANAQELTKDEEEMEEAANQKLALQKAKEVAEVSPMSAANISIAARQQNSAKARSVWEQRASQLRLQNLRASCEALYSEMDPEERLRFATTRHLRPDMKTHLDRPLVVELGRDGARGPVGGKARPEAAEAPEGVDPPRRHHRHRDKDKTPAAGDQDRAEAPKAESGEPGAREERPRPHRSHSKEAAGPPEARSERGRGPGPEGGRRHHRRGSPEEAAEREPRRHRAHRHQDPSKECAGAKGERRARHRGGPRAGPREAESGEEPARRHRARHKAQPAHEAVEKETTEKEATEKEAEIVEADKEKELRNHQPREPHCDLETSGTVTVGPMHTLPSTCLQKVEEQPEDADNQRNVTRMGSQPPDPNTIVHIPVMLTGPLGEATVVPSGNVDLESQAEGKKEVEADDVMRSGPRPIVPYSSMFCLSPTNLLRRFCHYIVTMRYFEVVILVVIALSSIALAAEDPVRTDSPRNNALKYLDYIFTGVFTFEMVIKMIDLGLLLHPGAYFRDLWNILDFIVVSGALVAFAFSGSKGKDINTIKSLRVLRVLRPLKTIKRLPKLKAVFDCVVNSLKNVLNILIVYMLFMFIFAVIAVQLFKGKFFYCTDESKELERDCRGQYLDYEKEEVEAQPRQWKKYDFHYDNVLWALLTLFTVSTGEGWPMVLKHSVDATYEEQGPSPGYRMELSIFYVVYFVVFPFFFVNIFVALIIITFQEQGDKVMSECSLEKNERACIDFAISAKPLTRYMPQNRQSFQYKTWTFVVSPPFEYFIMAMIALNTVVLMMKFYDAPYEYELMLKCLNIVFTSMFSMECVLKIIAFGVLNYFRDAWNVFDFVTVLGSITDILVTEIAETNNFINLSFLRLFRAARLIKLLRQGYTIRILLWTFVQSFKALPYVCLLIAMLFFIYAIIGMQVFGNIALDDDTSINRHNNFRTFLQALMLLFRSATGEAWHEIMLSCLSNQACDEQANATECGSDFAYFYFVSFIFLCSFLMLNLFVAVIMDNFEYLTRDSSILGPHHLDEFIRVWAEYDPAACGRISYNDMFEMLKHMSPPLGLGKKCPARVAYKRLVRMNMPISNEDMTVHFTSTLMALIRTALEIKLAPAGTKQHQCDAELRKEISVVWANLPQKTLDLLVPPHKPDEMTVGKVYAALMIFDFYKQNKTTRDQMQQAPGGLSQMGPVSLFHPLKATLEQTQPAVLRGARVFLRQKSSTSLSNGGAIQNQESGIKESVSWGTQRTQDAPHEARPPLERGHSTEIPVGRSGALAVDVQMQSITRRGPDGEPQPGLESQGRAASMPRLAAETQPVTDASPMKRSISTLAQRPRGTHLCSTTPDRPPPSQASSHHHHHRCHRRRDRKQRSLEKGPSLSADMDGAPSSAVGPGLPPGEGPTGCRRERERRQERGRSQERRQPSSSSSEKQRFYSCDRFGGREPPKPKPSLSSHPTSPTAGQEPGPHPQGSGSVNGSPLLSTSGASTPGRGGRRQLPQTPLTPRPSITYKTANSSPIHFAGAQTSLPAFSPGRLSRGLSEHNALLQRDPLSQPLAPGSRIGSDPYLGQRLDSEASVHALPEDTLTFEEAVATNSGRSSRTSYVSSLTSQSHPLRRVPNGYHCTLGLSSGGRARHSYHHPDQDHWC

T1 sequence (Q00975 with tags, fused parts or gaps INS1237SFVG): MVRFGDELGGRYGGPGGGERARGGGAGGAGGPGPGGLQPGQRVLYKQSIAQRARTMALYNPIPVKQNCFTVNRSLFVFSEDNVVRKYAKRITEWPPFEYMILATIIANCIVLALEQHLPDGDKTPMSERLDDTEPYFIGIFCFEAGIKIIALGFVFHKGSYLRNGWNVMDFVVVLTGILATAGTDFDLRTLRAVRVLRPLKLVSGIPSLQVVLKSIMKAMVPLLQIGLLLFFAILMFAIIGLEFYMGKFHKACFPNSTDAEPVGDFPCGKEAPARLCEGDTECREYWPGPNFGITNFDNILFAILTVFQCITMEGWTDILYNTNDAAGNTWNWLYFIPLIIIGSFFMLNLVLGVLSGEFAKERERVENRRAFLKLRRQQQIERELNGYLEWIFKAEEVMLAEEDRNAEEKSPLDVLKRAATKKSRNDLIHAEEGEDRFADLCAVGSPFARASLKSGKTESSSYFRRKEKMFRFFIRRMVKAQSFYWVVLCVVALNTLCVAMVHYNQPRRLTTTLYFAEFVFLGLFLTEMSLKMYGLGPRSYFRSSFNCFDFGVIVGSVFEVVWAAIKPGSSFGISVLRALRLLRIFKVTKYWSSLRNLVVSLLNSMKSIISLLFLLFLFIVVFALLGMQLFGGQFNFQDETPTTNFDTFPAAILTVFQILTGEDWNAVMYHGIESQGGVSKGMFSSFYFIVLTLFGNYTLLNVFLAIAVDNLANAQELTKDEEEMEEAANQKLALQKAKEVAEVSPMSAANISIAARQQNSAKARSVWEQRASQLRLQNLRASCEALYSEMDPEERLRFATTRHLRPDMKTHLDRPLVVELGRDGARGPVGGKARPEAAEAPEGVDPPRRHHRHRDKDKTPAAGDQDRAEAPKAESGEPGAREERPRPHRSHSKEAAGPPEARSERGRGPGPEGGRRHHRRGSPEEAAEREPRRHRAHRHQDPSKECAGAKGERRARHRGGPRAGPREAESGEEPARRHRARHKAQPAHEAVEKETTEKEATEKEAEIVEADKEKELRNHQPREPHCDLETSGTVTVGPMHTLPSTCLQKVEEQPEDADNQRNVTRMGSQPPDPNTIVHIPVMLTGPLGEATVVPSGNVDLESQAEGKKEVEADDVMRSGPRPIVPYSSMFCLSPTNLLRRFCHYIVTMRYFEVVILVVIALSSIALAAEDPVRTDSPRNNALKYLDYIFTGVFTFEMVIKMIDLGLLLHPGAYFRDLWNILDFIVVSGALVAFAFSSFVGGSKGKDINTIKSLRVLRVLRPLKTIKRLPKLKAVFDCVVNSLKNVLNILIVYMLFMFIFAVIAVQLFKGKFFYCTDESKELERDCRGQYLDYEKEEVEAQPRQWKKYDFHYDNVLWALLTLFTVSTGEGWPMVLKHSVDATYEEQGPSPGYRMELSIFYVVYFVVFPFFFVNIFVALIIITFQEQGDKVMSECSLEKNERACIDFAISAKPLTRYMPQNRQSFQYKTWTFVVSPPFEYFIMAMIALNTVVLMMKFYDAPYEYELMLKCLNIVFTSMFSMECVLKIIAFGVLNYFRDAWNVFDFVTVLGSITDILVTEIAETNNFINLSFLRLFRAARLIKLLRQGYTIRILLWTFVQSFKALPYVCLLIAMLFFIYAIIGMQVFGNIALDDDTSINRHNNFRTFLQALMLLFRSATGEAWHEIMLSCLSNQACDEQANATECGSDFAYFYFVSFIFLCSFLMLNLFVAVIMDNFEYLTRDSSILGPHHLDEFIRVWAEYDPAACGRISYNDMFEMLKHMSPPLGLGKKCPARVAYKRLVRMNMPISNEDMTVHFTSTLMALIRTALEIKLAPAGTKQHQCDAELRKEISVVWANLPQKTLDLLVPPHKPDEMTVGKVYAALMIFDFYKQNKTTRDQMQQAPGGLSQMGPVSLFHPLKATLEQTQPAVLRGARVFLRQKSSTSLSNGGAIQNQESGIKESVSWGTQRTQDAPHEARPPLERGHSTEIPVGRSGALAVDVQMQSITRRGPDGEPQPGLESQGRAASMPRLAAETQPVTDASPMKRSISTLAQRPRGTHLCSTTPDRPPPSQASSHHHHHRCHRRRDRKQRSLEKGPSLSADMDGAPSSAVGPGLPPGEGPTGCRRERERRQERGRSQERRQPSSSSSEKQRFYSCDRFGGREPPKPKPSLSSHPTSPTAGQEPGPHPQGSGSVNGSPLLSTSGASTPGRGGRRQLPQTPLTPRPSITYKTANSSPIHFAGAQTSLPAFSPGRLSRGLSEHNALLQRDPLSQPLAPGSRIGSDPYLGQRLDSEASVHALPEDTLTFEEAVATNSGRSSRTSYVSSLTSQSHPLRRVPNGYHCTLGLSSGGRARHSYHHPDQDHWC

By IC50 is commonly meant the midpoint of a concentration-inhibition curve. As for `COc1cc(CN2CCN(CCCCCC(c3ccc(F)cc3)c3ccc(F)cc3)CC2)cc(OC)c1OC` [Compound 1], the concentration for half-maximal inhibition (IC50) in experiment [1] is 7.13 µM; in experiment [2], 0.19 µM. Regarding `O=C(CCCCC(c1ccccc1)c1ccccc1)N1CCC(NCc2ccccc2)CC1` [Compound 2], in experiment [1], the IC50 amounted to 4.16 µM.
